≈ marks a conversion by molar mass, not a printed value.
How the values were obtained:
[1] = system: mice; assay: Subacute toxicity with HE staining of organs; conditions: 50 mg/kg, heart, liver, spleen, lungs, kidneys
[2] = cited from earlier work
[3] = Aqueous solubility measured by HPLC; assay type: physicochemical; conditions: aqueous solution, pH 2
[4] = system: RES056 (K103N+Y181C); conditions: read-out: EC50 RES056 (previously reported); cited from earlier work
[5] = system: HIV-1 Y188L; assay type: cell-based; conditions: MT-4 cells; CC50/EC50
[6] = system: NNRTI-resistant strain K103N+Y181C (RES056); conditions: MT-4 cells
[7] = system: HIV-1 Y181C; assay type: cell-based; conditions: MT-4 cells; CC50/EC50
[8] = system: WT HIV-1 (IIIB); conditions: MT-4 cells
[9] = system: HIV-1 E138K; assay type: cell-based; conditions: MT-4 cells; CC50/EC50
[10] = system: HIV-1 K103N; assay type: cell-based; conditions: MT-4 cells; CC50/EC50
[11] = system: HIV-1 strains carrying single NNRTI-resistant mutations; assay type: cell-based; conditions: EC50 mutant/EC50 WT
[12] = system: HIV-1 L100I; assay type: cell-based; conditions: MT-4 cells; CC50/EC50
[13] = system: HIV-1 F227L+V106A; assay type: cell-based; conditions: MT-4 cells; CC50/EC50
[14] = system: Kunming mice; assay: Acute; assay type: in vivo; conditions: 800 mg/kg, 2 weeks, vs control group
[15] = in vitro; conditions: human

Cc1cc(C#N)cc(C)c1Oc1nc(Nc2ccc(C#N)cc2)nc(N)c1Br [ETV, etravirine]
organ toxicity by HE staining [1]: alveolar interstitial thickening and alveolar hemorrhage (the blue arrow) in the lung and proximal convoluted tubule edema (the red circle) in the kidney | aqueous solubility (previously reported) [2]: less than 1 μg/mL | solubility [3]: 127 µg/mL (≈ 292 µM) | EC50 [4]: 17 nM

Cc1cc(C#N)cc(C)c1Oc1nc(NC2CCN(Cc3ccc(C(N)=O)cc3)CC2)nc2c1COC2 [13c2, 4-((4-((4-(4-Cyano-2,6-dimethylphenoxy)-5,7-dihydrofuro-[3,4-d]pyrimidin-2-yl)amino)piperidin-1-yl)methyl)benzamide]
SI Y188L [5]: > 29762 | SI RES056 (CC50/EC50) [6]: >6039 | SI Y181C [7]: > 56818 | SI IIIB (CC50/EC50) [8]: >156250 | SI E138K [9]: > 35714 | SI K103N [10]: > 277778 | resistance FC values range for single mutant strains [11]: 0.6–5.3 | SI L100I [12]: > 104167 | SI F227L+V106A [13]: > 13158 | behavior, acute toxicity [14]: no significant behavior abnormalities

Cc1cc(C#N)cc(C)c1Oc1nc(NC2CCN(Cc3ccc(S(N)(=O)=O)cc3)CC2)nc2ccsc12 [compound 3]
aqueous solubility (previously reported) [2]: less than 1 μg/mL | EC50 [4]: 30.6 nM

Cc1cc(C#N)cc(C)c1Oc1nc(NC2CCN(Cc3cccc(C(N)=O)c3)CC2)nc2c1SCCC2 [13f5, 3-((4-((4-(4-Cyano-2,6-dimethylphenoxy)-7,8-dihydro-6H-thiopyrano[3,2-d]pyrimidin-2-yl)amino)piperidin-1-yl)methyl)benzamide]
CC50 [15]: > 4590 nM

Source: PMC7441537 (Journal of medicinal chemistry, 2019)
